Tests used:
wheat (winter wheat) = assay: Test C postemergence; type: in vivo, Triticum aestivum
From the text: (§1) Seeds of plant species selected from blackgrass (Alopecurus myosuroides), ryegrass, Italian (Italian ryegrass, Lolium multiflorum), wheat (winter wheat, Triticum aestivum), galium (catchweed bedstraw, Galium aparine), corn (Zea mays), crabgrass, large (large crabgrass, Digitaria sanguinalis), foxtail, giant, (giant foxtail, Setaria faberii), johnsongrass (Sorghum halepense), lambsquarters (Chenopodium album), morningglory (Ipomoea coccinea), nutsedge, yellow (yellow nutsedge, Cyperus esculentus), pigweed (Amaranthus retroflexus), ragweed (common ragweed, Ambrosia elatior), soybean (Glycine max), barnyardgrass (Echinochloa crus-galli), oilseed rape (Brassica napus), waterhemp (common waterhemp, Amaranthus rudis), and velvetleaf (Abutilon theophrasti) were planted into a blend of loam soil and sand and treated preemergence with test chemicals formulated in a non-phytotoxic solvent mixture which included a surfactant. At the same time, plants selected from these crop and weed species and also chickweed (common chickweed, Stellaria media), oat, wild (wild oat, Avena fatua), and kochia (Kochia scoparia), were planted in pots containing Sunshine Redi-Earth® planting medium comprising spaghnum peat moss, vermiculite, starter nutrients and dolomitic limestone and treated with postemergence applications of test chemicals formulated in the same manner. Plants ranged in height from 2 to 18 cm (1- to 4-leaf stage) for postemergence treatments. […] A dash (-) response means no test result.

ryegrass, Italian = assay: Test C postemergence; type: in vivo, Lolium multiflorum
From the text: as §1

rice = assay: Test B flooded paddy test; type: in vivo, Oryza sativa; settings: 250 g ai/ha, applied to paddy water at 2-leaf stage, visual rating after 13 to 15 d, scale 0 (no effect) to 100 (complete control)
How it was run: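 Pots were flooded to 3 cm above the soil at treatment, and compounds were applied directly into the paddy water. That depth was held throughout. After 13 to 15 d in a greenhouse, plants were rated visually against untreated controls.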

galium = assay: Test C postemergence; type: in vivo, Galium aparine
From the text: as §1

pigweed [1] = assay: Test C postemergence; type: in vivo, Amaranthus retroflexus
From the text: as §1

wheat = assay: Test A postemergence; type: in vivo, Triticum aestivum; settings: 0 to 100 scale (0 no effect, 100 complete control), approx. 10 d
How it was run: (§2)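 Loam/sand soil mix; compound in non-phytotoxic solvent + surfactant. Pre: directed soil spray right after planting seed. Post: potted plants 2–10 cm, 1–2 leaf stage, sprayed with same formulation.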

foxtail, giant [2] = assay: Test A postemergence; type: in vivo, Setaria faberii; settings: 0 to 100 scale (0 no effect, 100 complete control), approx. 10 d
How it was run: as §2

waterhemp = assay: Test C postemergence; type: in vivo, Amaranthus rudis
From the text: as §1

soybean = assay: Test C postemergence; type: in vivo, Glycine max
From the text: as §1

lambsquarters = assay: Test C postemergence; type: in vivo, Chenopodium album
From the text: as §1

barnyardgrass [3] = assay: Test A preemergence; type: in vivo, Echinochloa crus-galli; settings: 0 to 100 scale (0 no effect, 100 complete control)
How it was run: as §2

corn [4] = assay: Test C postemergence; type: in vivo, Zea mays
From the text: as §1

crabgrass, large = assay: Test C postemergence; type: in vivo, Digitaria sanguinalis
From the text: as §1

nutsedge, yellow = assay: Test C postemergence; type: in vivo, Cyperus esculentus
From the text: as §1

foxtail, giant [5] = assay: Test A preemergence; type: in vivo, Setaria faberii; settings: 0 to 100 scale (0 no effect, 100 complete control)
How it was run: as §2

velvetleaf = assay: Test C postemergence; type: in vivo, Abutilon theophrasti
From the text: as §1

pigweed [6] = assay: Test A postemergence; type: in vivo, Amaranthus retroflexus; settings: 0 to 100 scale (0 no effect, 100 complete control), approx. 10 d
How it was run: as §2

pigweed [7] = assay: Test A preemergence; type: in vivo, Amaranthus retroflexus; settings: 0 to 100 scale (0 no effect, 100 complete control)
How it was run: as §2

corn [8] = assay: Test A postemergence; type: in vivo, Zea mays; settings: 0 to 100 scale (0 no effect, 100 complete control), approx. 10 d
How it was run: as §2

oilseed rape = assay: Test C postemergence; type: in vivo, Brassica napus
From the text: as §1

barnyardgrass [9] = assay: Test A postemergence; type: in vivo, Echinochloa crus-galli; settings: 0 to 100 scale (0 no effect, 100 complete control), approx. 10 d
How it was run: as §2

FC(F)(F)COc1nc(-c2ccc(Cl)cc2)nn1Cc1ccnc(C(F)(F)F)c1 [Compound 31]
Plant response rating (scale of 0 to 100 where 0 is no effect and 100 is complete control) (wheat (winter wheat); 31 g ai/ha): 5 | Plant response rating (scale of 0 to 100 where 0 is no effect and 100 is complete control) (wheat (winter wheat); 62 g ai/ha): 5 | Plant response rating (scale of 0 to 100 where 0 is no effect and 100 is complete control) (wheat (winter wheat); 125 g ai/ha): 10 | Plant response rating (scale of 0 to 100 where 0 is no effect and 100 is complete control) (wheat (winter wheat); 250 g ai/ha): 20 | Plant response rating (scale of 0 to 100 where 0 is no effect and 100 is complete control) (ryegrass, Italian; 31 g ai/ha): 20 | Plant response rating (scale of 0 to 100 where 0 is no effect and 100 is complete control) (ryegrass, Italian; 62 g ai/ha): 30 | Plant response rating (scale of 0 to 100 where 0 is no effect and 100 is complete control) (ryegrass, Italian; 125 g ai/ha): 40 | Plant response rating (scale of 0 to 100 where 0 is no effect and 100 is complete control) (ryegrass, Italian; 250 g ai/ha): 65 | Plant response rating, Rice, Flood (rice): 35 | Plant response rating (scale of 0 to 100 where 0 is no effect and 100 is complete control) (galium; 31 g ai/ha): 80 | Plant response rating (scale of 0 to 100 where 0 is no effect and 100 is complete control) (galium; 62 g ai/ha): 80 | Plant response rating (scale of 0 to 100 where 0 is no effect and 100 is complete control) (galium; 125 g ai/ha): 80 | Plant response rating (scale of 0 to 100 where 0 is no effect and 100 is complete control) (galium; 250 g ai/ha): 80 | Plant response rating (scale of 0 to 100 where 0 is no effect and 100 is complete control) (pigweed [1]; 31 g ai/ha): 95 | Plant response rating (scale of 0 to 100 where 0 is no effect and 100 is complete control) (pigweed [1]; 62 g ai/ha): 98 | Plant response rating (scale of 0 to 100 where 0 is no effect and 100 is complete control) (pigweed [1]; 125 g ai/ha): 100 | Plant response rating (scale of 0 to 100 where 0 is no effect and 100 is complete control) (pigweed [1]; 250 g ai/ha): 98 | Plant response rating, Wheat (wheat; 125 g ai/ha): 30 | Plant response rating, Wheat (wheat; 500 g ai/ha): 40 | Plant response rating, Foxtail, Giant (foxtail, giant [2]; 125 g ai/ha): 80 | Plant response rating, Foxtail, Giant (foxtail, giant [2]; 500 g ai/ha): 90 | Plant response rating (scale of 0 to 100 where 0 is no effect and 100 is complete control) (waterhemp; 31 g ai/ha): 95 | Plant response rating (scale of 0 to 100 where 0 is no effect and 100 is complete control) (waterhemp; 62 g ai/ha): 98 | Plant response rating (scale of 0 to 100 where 0 is no effect and 100 is complete control) (waterhemp; 125 g ai/ha): 100 | Plant response rating (scale of 0 to 100 where 0 is no effect and 100 is complete control) (waterhemp; 250 g ai/ha): 98 | Plant response rating (scale of 0 to 100 where 0 is no effect and 100 is complete control) (soybean; 31 g ai/ha): 40 | Plant response rating (scale of 0 to 100 where 0 is no effect and 100 is complete control) (soybean; 62 g ai/ha): 65 | Plant response rating (scale of 0 to 100 where 0 is no effect and 100 is complete control) (soybean; 125 g ai/ha): 35 | Plant response rating (scale of 0 to 100 where 0 is no effect and 100 is complete control) (soybean; 250 g ai/ha): 65 | Plant response rating (scale of 0 to 100 where 0 is no effect and 100 is complete control) (lambsquarters; 31 g ai/ha): 98 | Plant response rating (scale of 0 to 100 where 0 is no effect and 100 is complete control) (lambsquarters; 62 g ai/ha): 100 | Plant response rating (scale of 0 to 100 where 0 is no effect and 100 is complete control) (lambsquarters; 125 g ai/ha): 100 | Plant response rating (scale of 0 to 100 where 0 is no effect and 100 is complete control) (lambsquarters; 250 g ai/ha): 100 | Plant response rating, Barnyardgrass (barnyardgrass [3]; 125 g ai/ha): 90 | Plant response rating, Barnyardgrass (barnyardgrass [3]; 500 g ai/ha, approx. 10 d): 90 | Plant response rating (scale of 0 to 100 where 0 is no effect and 100 is complete control) (corn [4]; 31 g ai/ha): 40 | Plant response rating (scale of 0 to 100 where 0 is no effect and 100 is complete control) (corn [4]; 62 g ai/ha): 20 | Plant response rating (scale of 0 to 100 where 0 is no effect and 100 is complete control) (corn [4]; 125 g ai/ha): 20 | Plant response rating (scale of 0 to 100 where 0 is no effect and 100 is complete control) (corn [4]; 250 g ai/ha): 30 | Plant response rating (scale of 0 to 100 where 0 is no effect and 100 is complete control) (crabgrass, large; 31 g ai/ha): 20 | Plant response rating (scale of 0 to 100 where 0 is no effect and 100 is complete control) (crabgrass, large; 62 g ai/ha): 35 | Plant response rating (scale of 0 to 100 where 0 is no effect and 100 is complete control) (crabgrass, large; 125 g ai/ha): 60 | Plant response rating (scale of 0 to 100 where 0 is no effect and 100 is complete control) (crabgrass, large; 250 g ai/ha): 80 | Plant response rating (scale of 0 to 100 where 0 is no effect and 100 is complete control) (nutsedge, yellow; 31 g ai/ha): 20 | Plant response rating (scale of 0 to 100 where 0 is no effect and 100 is complete control) (nutsedge, yellow; 62 g ai/ha): 30 | Plant response rating (scale of 0 to 100 where 0 is no effect and 100 is complete control) (nutsedge, yellow; 125 g ai/ha): 30 | Plant response rating (scale of 0 to 100 where 0 is no effect and 100 is complete control) (nutsedge, yellow; 250 g ai/ha): 35 | Plant response rating, Foxtail, Giant (foxtail, giant [5]; 125 g ai/ha): 100 | Plant response rating, Foxtail, Giant (foxtail, giant [5]; 500 g ai/ha, approx. 10 d): 100 | Plant response rating (scale of 0 to 100 where 0 is no effect and 100 is complete control) (velvetleaf; 31 g ai/ha): 45 | Plant response rating (scale of 0 to 100 where 0 is no effect and 100 is complete control) (velvetleaf; 62 g ai/ha): 65 | Plant response rating (scale of 0 to 100 where 0 is no effect and 100 is complete control) (velvetleaf; 125 g ai/ha): 65 | Plant response rating (scale of 0 to 100 where 0 is no effect and 100 is complete control) (velvetleaf; 250 g ai/ha): 75 | Plant response rating, Pigweed (pigweed [6]; 125 g ai/ha): 100 | Plant response rating, Pigweed (pigweed [6]; 500 g ai/ha): 100 | Plant response rating, Pigweed (pigweed [7]; 125 g ai/ha): 100 | Plant response rating, Pigweed (pigweed [7]; 500 g ai/ha, approx. 10 d): 100 | Plant response rating, Corn (corn [8]; 125 g ai/ha): 20 | Plant response rating, Corn (corn [8]; 500 g ai/ha): 30 | Plant response rating (scale of 0 to 100 where 0 is no effect and 100 is complete control) (oilseed rape; Oilsee Rape, 250 g ai/ha): 90 | Plant response rating (scale of 0 to 100 where 0 is no effect and 100 is complete control) (oilseed rape; Oilseed Rape, 31 g ai/ha): 85 | Plant response rating (scale of 0 to 100 where 0 is no effect and 100 is complete control) (oilseed rape; Oilseed Rape, 62 g ai/ha): 90 | Plant response rating (scale of 0 to 100 where 0 is no effect and 100 is complete control) (oilseed rape; Oilseed Rape, 125 g ai/ha): 85 | Plant response rating, Barnyardgrass (barnyardgrass [9]; 125 g ai/ha): 50 | Plant response rating, Barnyardgrass (barnyardgrass [9]; 500 g ai/ha): 90

Source: patent publication US10681909B2, “Herbicidal triazoles” (FMC Corporation, priority 2014, dated 2020)
